Where “and” joins values, the source holds several entries; their conditions need not be identical. Equal entries are not always repeated. Inconclusive results and toxic doses are left out.

The test has as its system BDF1 mice, P388 leukemia ip, median survival T/C. In words: NCI In Vivo Anticancer Drug Screen. Data for tumor model P388 Leukemia (intraperitoneal) in B6D2F1 (BDF1) mice. The settings on record: endpoint: median survival time, higher = longer survival. In a few lines: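 Steps: implant the tumour, treat one group with compound and another with vehicle, record survival, then divide treated by control.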

[1] abbreviates: dose: 50.0 mg/kg/injection, schedule: Q01DX001 (ip), vehicle: saline.
Where [2] appears, read: dose: 12.5 mg/kg/injection, schedule: Q01DX009 (ip), vehicle: saline.
Setting [3] is: dose: 12.5 mg/kg/injection, schedule: Q04DX003 (ip), vehicle: saline.
[4] abbreviates: dose: 25.0 mg/kg/injection, schedule: Q01DX009 (ip), vehicle: saline.
Setting [5] is: dose: 25.0 mg/kg/injection, schedule: Q04DX003 (ip), vehicle: saline.
[6] abbreviates: dose: 50.0 mg/kg/injection, schedule: Q04DX003 (ip), vehicle: saline.
Setting [7] is: dose: 50.0 mg/kg/injection, schedule: Q01DX009 (ip), vehicle: saline with Tween-80.
Where [8] appears, read: dose: 100.0 mg/kg/injection, schedule: Q01DX009 (ip), vehicle: saline with Tween-80.
Where [9] appears, read: dose: 200.0 mg/kg/injection, schedule: Q01DX009 (ip), vehicle: saline with Tween-80.
[10] abbreviates: dose: 6.25 mg/kg/injection, schedule: Q04DX003 (ip), vehicle: water.
Setting [11] is: dose: 12.5 mg/kg/injection, schedule: Q04DX003 (ip), vehicle: water.
The mark [12] stands for this setting: dose: 50.0 mg/kg/injection, schedule: Q04DX003 (ip), vehicle: water.
The mark [13] stands for this setting: dose: 100.0 mg/kg/injection, schedule: Q04DX003 (ip), vehicle: water.
Setting [14] is: dose: 100.0 mg/kg/injection, schedule: Q04DX003 (ip), vehicle: saline with Tween-80.
Where [15] appears, read: dose: 200.0 mg/kg/injection, schedule: Q04DX003 (ip), vehicle: saline with Tween-80.
Where [16] appears, read: dose: 400.0 mg/kg/injection, schedule: Q01DX009 (ip), vehicle: saline with Tween-80.
Setting [17] is: dose: 400.0 mg/kg/injection, schedule: Q04DX003 (ip), vehicle: saline with Tween-80.

`O=C(CCCl)N1CCN(C(=O)CCCl)CC1`: the T/C reads like this: (dose: 66.0 mg/kg/injection, schedule: Q01DX009 (ip), vehicle: Klucel (hydroxypropylcellulose) (HPC)) 104 % of control; (dose: 100.0 mg/kg/injection, schedule: Q01DX009 (ip), vehicle: Klucel (hydroxypropylcellulose) (HPC)) 90 % of control; (dose: 100.0 mg/kg/injection, schedule: Q04DX003 (ip), vehicle: saline sonified) 116 % of control; (dose: 150.0 mg/kg/injection, schedule: Q01DX009 (ip), vehicle: Klucel (hydroxypropylcellulose) (HPC)) 113 % of control; (dose: 200.0 mg/kg/injection, schedule: Q04DX003 (ip), vehicle: saline sonified) 108 % of control; (dose: 400.0 mg/kg/injection, schedule: Q01DX009 (ip), vehicle: Klucel (hydroxypropylcellulose) (HPC)) 95 % of control. In addition, the T/C (dose: 400.0 mg/kg/injection, schedule: Q04DX003 (ip), vehicle: saline sonified) was 120 % of control.

On to `N#CCCCCCl`, for which the T/C (dose: 25.0 mg/kg/injection, schedule: Q01DX001 (ip), vehicle: saline) was 90 % of control; the T/C under setting [1] was 100 % of control; the T/C (dose: 100.0 mg/kg/injection, schedule: Q01DX001 (ip), vehicle: saline) was 95 % of control and 100 % of control.

In the case of `CC(C)(C)C1=C[P+](c2ccccc2)(c2ccccc2)C(C(C)(C)C)=C[P+]1(c1ccccc1)c1ccccc1`, the T/C under setting [2] was 96 % of control; the T/C under setting [3] was 96 % of control; the T/C under setting [4] is 107 % of control; the T/C under setting [5] was 100 % of control; the T/C under setting [6] is 96 % of control.

`CC(=O)NC(C(=O)N/N=C(\C)c1ccccc1)C(=O)N/N=C(\C)c1ccccc1`: the T/C is, setting by setting: under setting [7], 98 % of control; under setting [8], 101 % of control; under setting [9], 89 % of control.

Consider `Clc1cccc(NC2=NCCN=C(Nc3cccc(Cl)c3Cl)SS2)c1Cl`, for which the T/C is 102 % of control under setting [7], 100 % of control under setting [8] and 96 % of control under setting [9].

In the case of `O=S(=O)(O)O.[O]=[V]`, the T/C (dose: 3.12 mg/kg/injection, schedule: Q01DX009 (ip), vehicle: saline) was 89 % of control; the T/C (dose: 6.25 mg/kg/injection, schedule: Q01DX009 (ip), vehicle: saline) was 92 % of control; the T/C (dose: 8.75 mg/kg/injection, schedule: Q01DX001 (ip), vehicle: saline) was 95 % of control; the T/C under setting [2] was 100 % of control; the T/C under setting [3] is 92 % of control and 100 % of control; the T/C (dose: 17.5 mg/kg/injection, schedule: Q01DX001 (ip), vehicle: saline) was 100 % of control. Further, the T/C under setting [4] is 100 % of control; the T/C under setting [5] is 95 % of control; the T/C (dose: 35.0 mg/kg/injection, schedule: Q01DX001 (ip), vehicle: saline) is 100 % of control; the T/C under setting [1] is 90 % of control; the T/C under setting [6] was 89 % of control.

As for `O=C(/C=C\c1ccccc1)/C=C/c1ccccc1`, the T/C by setting is: (dose: 100.0 mg/kg/injection, schedule: Q04DX003 (sc), vehicle: olive oil, sesame oil, peanut oil) 100 % of control; (dose: 200.0 mg/kg/injection, schedule: Q04DX003 (sc), vehicle: olive oil, sesame oil, peanut oil) 100 % of control; (dose: 400.0 mg/kg/injection, schedule: Q04DX003 (sc), vehicle: olive oil, sesame oil, peanut oil) 100 % of control.

Consider `COc1cc(OC)cc(C(=O)N2CC2)c1`, for which the T/C under setting [10] is 105 % of control; the T/C under setting [11] was 98 % of control; the T/C (dose: 25.0 mg/kg/injection, schedule: Q04DX003 (ip), vehicle: water) was 105 % of control; the T/C under setting [12] was 96 % of control; the T/C under setting [13] is 107 % of control; the T/C (dose: 200.0 mg/kg/injection, schedule: Q01DX009 (ip), vehicle: water) is 100 % of control. The T/C is 100 % of control (dose: 200.0 mg/kg/injection, schedule: Q04DX003 (ip), vehicle: water); 105 % of control (dose: 300.0 mg/kg/injection, schedule: Q01DX009 (ip), vehicle: water); 91 % of control (dose: 400.0 mg/kg/injection, schedule: Q01DX009 (ip), vehicle: water).

For the molecule `COc1cccc2c1C(=O)c1c(O)c3c(c(O)c1C2=O)CC(O)(/C(C)=N\NC(=O)N/N=C(\C)C1(O)Cc2c(O)c4c(c(O)c2C(OC2CC(N)C(O)C(C)O2)C1)C(=O)c1c(OC)cccc1C4=O)CC3OC1CC(N)C(O)C(C)O1` (configuration not stated), the T/C is 108 % of control (dose: 3.13 mg/kg/injection, schedule: Q04DX003 (ip), vehicle: water); 117 % of control under setting [10]; 117 % of control under setting [11]; 153 % of control under setting [12]; 162 % of control under setting [13].

Take `COc1ccc(C(C)=O)cc1CO/N=C1\CSCc2ccccc21`: the T/C is, setting by setting: under setting [7], 101 % of control; under setting [8], 119 % of control; under setting [9], 108 % of control.

Consider `COC(=O)CCC(=O)c1ccc(OC)c(OC)c1`, for which the T/C runs as follows: under setting [7], 115 % of control; under setting [8], 99 % of control; under setting [9], 99 % of control.

For the molecule `Cc1c(Cl)c(Cl)c(Cl)c(Cl)c1Cl`, the T/C under setting [8] is 118 % of control; the T/C under setting [14] is 104 % of control; the T/C under setting [9] was 95 % of control; the T/C under setting [15] was 104 % of control; the T/C under setting [16] was 95 % of control; the T/C under setting [17] was 95 % of control.

On to `COc1cccc2c1C(=O)c1c(O)c3c(c(O)c1C2=O)C[C@@](O)(C(=O)O)C[C@@H]3OC1CC(N)C(O)C(C)O1` (some centres not stated), for which the T/C runs as follows: (dose: 1.56 mg/kg/injection, schedule: Q01DX009 (ip), vehicle: water) 100 % of control; (dose: 3.12 mg/kg/injection, schedule: Q01DX009 (ip), vehicle: water) 107 % of control and 109 % of control; (dose: 6.25 mg/kg/injection, schedule: Q01DX009 (ip), vehicle: water) 93 % of control.

Take `Cc1cc(N(CCCl)CCCl)ccc1N=Nc1ccccc1C(=O)[O-].Cc1cc(N(CCCl)CCCl)ccc1N=Nc1ccccc1C(=O)[O-].[Cu+2]`: the T/C reads like this: (dose: 16.5 mg/kg/injection, schedule: Q04DX003 (ip), vehicle: saline with Tween-80) 240 % of control and 105 % of control; (dose: 25.0 mg/kg/injection, schedule: Q04DX003 (ip), vehicle: saline with Tween-80) 263 % of control and 165 % of control; (dose: 37.5 mg/kg/injection, schedule: Q04DX003 (ip), vehicle: saline with Tween-80) 227 % of control.

As for `COC(OC)c1[nH]c(=S)[nH]c(=O)c1Cc1cccc2ccccc12`, the T/C is 111 % of control under setting [8]; 100 % of control under setting [14]; 92 % of control under setting [9]; 91 % of control under setting [15]; 88 % of control under setting [16]; 87 % of control under setting [17].

Consider `O=C(CC(O)(C(F)(F)F)C(F)(F)F)c1cccs1`, for which the T/C (dose: 132.0 mg/kg/injection, schedule: Q04DX003 (ip), vehicle: saline with Tween-80) is 105 % of control.

`CCC(=O)O[C@H]1CC(=O)N(C)c2cc(cc(OC)c2Cl)C/C(C)=C/C=C[C@@H](OC)[C@@]2(O)C[C@H](OC(=O)N2)[C@@H](C)[C@H]2O[C@@]12C`: the T/C (dose: 0.8 micrograms/kg/injection, schedule: Q01DX009 (ip), vehicle: saline + alcohol) is 170 % of control; the T/C (dose: 0.9 micrograms/kg/injection, schedule: Q01DX009 (ip), vehicle: saline + alcohol) is 110 % of control; the T/C (dose: 1.5 micrograms/kg/injection, schedule: Q01DX009 (ip), vehicle: saline + alcohol) is 173 % of control; the T/C (dose: 3.1 micrograms/kg/injection, schedule: Q01DX009 (ip), vehicle: saline + alcohol) was 168 % of control; the T/C (dose: 6.2 micrograms/kg/injection, schedule: Q01DX009 (ip), vehicle: saline + alcohol) is 170 % of control; the T/C (dose: 12.5 micrograms/kg/injection, schedule: Q01DX009 (ip), vehicle: saline + alcohol) was 163 % of control and 183 % of control. Besides, the T/C is 258 % of control and 153 % of control (dose: 25.0 micrograms/kg/injection, schedule: Q01DX009 (ip), vehicle: saline + alcohol); 198 % of control and 223 % of control (dose: 50.0 micrograms/kg/injection, schedule: Q01DX009 (ip), vehicle: saline + alcohol).

For the origin of these results see PubChem BioAssay AID328 (DTP/NCI, 2004).
